Measurements taken from patent publication US10759781B2, “Substituted guanidine derivatives” (UBE INDUSTRIES, LTD., priority 2015, dated 2020).

Tests used:
in vivo = assay: in vivo; parameters: species or system SD rats; settings: SD, rat, po, 3 mg/kg
Description: Rat Pharmacokinetic (PK) Study (Concentration of Compound in Plasma after Oral Administration)
Seven to eight week old SD rats (weighing 180 to 250 g) were orally administered with a suspension of the compound in 0.5 W/V % methylcellulose 400 solution. Under anesthesia, the blood was collected from the jugular vein in EDTA tubes at 0.25, 0.5, 1, 2, 4, 6, 8 and 24 hours after the administration of the compound. The blood was centrifuged at 4° C. and 6000 g for 3 minutes to give plasma. Acetonitrile was added to the plasma, and the mixture was stirred with a shaker at 750 rpm for 3 minutes and was deproteinized by centrifugation at 3700 rpm for 2 minutes. Thus, the obtained sample was analyzed by LC/MS under the following conditions.
The concentration of the compound in the plasma at each blood sampling time was determined by an internal standard method, and AUC all (Area Under Curve) was calculated by a trapezoidal method.
The following LC and MS systems were used for measurement.
LC: CBM 30 series manufactured by Shimadzu Corporation
Column: Phenomenex Kinetex C18 (50×2.1 mm, 2.6 μm)
Column temperature: 40° C.
Mobile phase A: 0.1% aqueous formic acid solution, mobile phase B: 0.1% formic acid,
50% acetonitrile/methanol mixture
MS: 3200 manufactured by SCIEX

[1] = test system: Human normal hepatic sinusoid-like microvascular endothelial cells; assay type: cell-based; settings: 2 days, 300 nM
Description: The Cytotoxicity Inhibition Test in Human Normal Hepatic Sinusoid-Like Microvascular Endothelial Cells
(§1) Human normal hepatic sinusoid-like microvascular endothelial cells were plated at 6000 cells/well in a collagen-coated 96-well culture plate. After one day of culture, the medium at each well was completely removed by aspiration and replaced with 50 μL of the compound solution diluted with the basal medium. The basal medium containing 0.1% DMSO was added to control wells. Following, the plate was incubated in CO2 incubator for 30 minutes. Fifty microliter of 2 mM methylamine diluted with the basal medium was added (final concentration 1 mM) to each negative control well (0% inhibition) as well as the compound-containing well, and 50 μL of the basal medium was added to each positive control well (100% inhibition). The plate was incubated in CO2 incubator for 2 days. Ten microliter of CCK-8 was added to each well and the mixtures were incubated in a plate incubator at 37° C. for approximately 2 hours after stirring with a plate shaker. The absorbance of the mixtures at 450 nm was measured with a multiplate reader. The cytotoxicity inhibition ratio of the compound was calculated from the following equation. Inhibition ratio={[Average absorbance of the compound-containing wells]−[Average absorbance of negative control wells]}/{[Average absorbance of positive control wells]−[Average absorbance of negative control wells]}×100

Rat Plasma VAP-1 = target: T1, Rat Plasma VAP-1 (Rattus norvegicus, UniProt O08590); assay: (Ex vivo) rat plasma VAP-1 inhibition test after oral administration of the compound; assay type: in vivo; settings: 3 hours after oral administration, SD male rats, read-out: inhibition ratio (plasma VAP-1, ex vivo)
T1 construct: from tissue; host or cells: plasma of SD male rats (7-12 weeks old) after oral dosing
T1 sequence (O08590 28-763 limits assumed): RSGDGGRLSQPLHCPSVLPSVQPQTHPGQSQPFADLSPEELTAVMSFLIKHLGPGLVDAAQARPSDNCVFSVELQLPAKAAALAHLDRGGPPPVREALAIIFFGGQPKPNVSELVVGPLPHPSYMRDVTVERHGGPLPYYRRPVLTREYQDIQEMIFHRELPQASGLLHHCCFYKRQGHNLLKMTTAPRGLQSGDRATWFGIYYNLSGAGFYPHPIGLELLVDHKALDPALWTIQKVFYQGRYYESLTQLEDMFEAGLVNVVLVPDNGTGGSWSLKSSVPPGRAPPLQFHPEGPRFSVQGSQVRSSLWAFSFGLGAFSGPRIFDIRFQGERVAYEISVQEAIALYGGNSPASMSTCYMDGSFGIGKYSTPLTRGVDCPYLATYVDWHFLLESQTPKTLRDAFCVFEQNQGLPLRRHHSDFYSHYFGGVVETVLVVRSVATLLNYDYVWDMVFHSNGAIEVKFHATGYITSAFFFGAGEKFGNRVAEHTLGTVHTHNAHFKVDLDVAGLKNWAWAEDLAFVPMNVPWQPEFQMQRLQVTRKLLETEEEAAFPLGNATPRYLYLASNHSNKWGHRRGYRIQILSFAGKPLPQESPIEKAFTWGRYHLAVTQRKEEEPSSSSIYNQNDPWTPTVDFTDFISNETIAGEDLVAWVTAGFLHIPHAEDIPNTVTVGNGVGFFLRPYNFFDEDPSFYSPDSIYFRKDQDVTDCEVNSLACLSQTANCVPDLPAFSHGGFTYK
Outline: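 Male SD rats, 7–12 weeks, non-fasted, dosed orally at 0.3–10 mg/kg; jugular blood taken predose and 3, 8 and 24 h after dosing. Plasma incubated with 2.5 μM 14C-benzylamine for 3 h at 37 °C; extracted product counted by scintillation. Inhibition expressed relative to each animal's predose plasma activity.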

[2] = test system: Human normal glomerular microvascular endothelial cells; assay type: cell-based; settings: 2 days, 100 nM
Description: The Cytotoxicity Inhibition Test in Human Normal Glomerular Microvascular Endothelial Cells
as §1, with “glomerular” for “hepatic sinusoid-like”

Human VAP-1 enzyme = target: T2, Human VAP-1 enzyme (Homo sapiens, UniProt Q16853); assay: Human VAP-1 enzyme inhibition test; assay type: biochemical; settings: 1 h; compound 30 nM; 14C-benzylamine 100 μM; read-out: inhibition ratio (human VAP-1 enzyme)
T2 construct: purchased R&D Systems, Inc
T2 sequence (Q16853 1-763): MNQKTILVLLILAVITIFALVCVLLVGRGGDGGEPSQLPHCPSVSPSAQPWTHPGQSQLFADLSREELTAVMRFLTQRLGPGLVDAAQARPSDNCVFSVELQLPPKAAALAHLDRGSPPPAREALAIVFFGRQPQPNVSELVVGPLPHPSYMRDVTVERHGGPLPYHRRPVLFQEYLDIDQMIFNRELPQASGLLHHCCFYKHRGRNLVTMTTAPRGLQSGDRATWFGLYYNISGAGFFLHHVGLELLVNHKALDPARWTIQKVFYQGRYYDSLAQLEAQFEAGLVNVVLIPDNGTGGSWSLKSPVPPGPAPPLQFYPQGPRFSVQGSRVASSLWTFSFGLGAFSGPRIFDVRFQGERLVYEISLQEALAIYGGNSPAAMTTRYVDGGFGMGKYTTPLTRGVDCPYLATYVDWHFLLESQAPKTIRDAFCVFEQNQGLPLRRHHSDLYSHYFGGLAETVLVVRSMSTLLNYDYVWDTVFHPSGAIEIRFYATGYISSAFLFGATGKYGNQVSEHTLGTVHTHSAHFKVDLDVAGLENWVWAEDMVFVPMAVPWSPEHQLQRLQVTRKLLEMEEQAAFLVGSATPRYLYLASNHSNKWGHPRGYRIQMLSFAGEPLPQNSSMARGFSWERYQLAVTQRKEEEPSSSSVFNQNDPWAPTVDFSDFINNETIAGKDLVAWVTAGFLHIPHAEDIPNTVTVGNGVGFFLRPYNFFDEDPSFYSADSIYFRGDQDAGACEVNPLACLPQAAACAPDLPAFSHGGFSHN
Outline: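 Recombinant human VAP-1 pre-incubated 20 min at room temperature with compound in DMSO, then reacted with 14C-benzylamine (100 μM final) 1 h at 37 °C. Citric acid stop; oxidized product extracted into toluene/ethyl acetate and counted by liquid scintillation. Inhibition ratio relative to DMSO-only activity.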

AUC (in vivo) [ng·h/mL]	inhibition in vivo at 0.3 mg/kg (Rat Plasma VAP-1) [%]	inhibition at 0.03 µM (Human VAP-1 enzyme) [%]	Compound	cytotoxicity inhibition ratio [1] [%]	cytotoxicity inhibition ratio [2] [%]
≥ 1000	≥ 50		CON=C1CN(c2ncc(-c3cccc(COC(=O)NC(=N)N)c3F)cn2)C1 [Example 1, 2-Fluoro-3-{2-[3-(methoxyimino)azetidin-1-yl]pyrimidin-5-yl}benzyl carbamimidoylcarbamate]	≥ 50	≥ 50
	≥ 50		CCON=C1CN(c2ncc(-c3cccc(COC(=O)NC(=N)N)c3F)cn2)C1 [Example 2, 3-{2-[3-(Ethoxyimino)azetidin-1-yl]pyrimidin-5-yl}-2-fluorobenzyl carbamimidoylcarbamate]	≥ 50	≥ 50
	≥ 50	≥ 50	[2H]C([2H])([2H])ON=C1CN(c2ncc(-c3cccc(COC(=O)NC(=N)N)c3F)cn2)C1 [Example 3, 2-Fluoro-3-(2-{3-[(methoxy-d3)imino]azetidin-1-yl}pyrimidin-5-yl)benzyl carbamimidoylcarbamate]	≥ 50	≥ 50
	≥ 50		N=C(N)NC(=O)OCc1cccc(-c2cnc(N3CC(=NOCCF)C3)nc2)c1F [Example 5, 2-Fluoro-3-(2-{3-[(2-fluoroethoxy)imino]azetidin-1-yl}pyrimidin-5-yl)benzyl carbamimidoylcarbamate]	≥ 50	≥ 50
	≥ 50	≥ 50	CC(=O)OC1CC(ON=C2CN(c3ncc(-c4cccc(COC(=O)NC(=N)N)c4F)cn3)C2)C1 (stereo not drawn) [Example 133, 3-[({1-[5-(3-{[(Carbamimidoylcarbamoyl)oxy]methyl}-2-fluorophenyl)pyrimidin-2-yl]azetidin-3-ylidene}amino)oxy]cyclobutyl acetate]	≥ 50	≥ 50
	≥ 50	≥ 50	CS(=O)(=O)N1CC(ON=C2CN(c3ncc(-c4cccc(COC(=O)NC(=N)N)c4F)cn3)C2)C1 [Example 141, 2-Fluoro-3-{2-[3-({[1-(methylsulfonyl)azetidin-3-yl]oxy}imino)azetidin-1-yl]pyrimidin-5-yl}benzyl carbamimidoylcarbamate]	≥ 50	≥ 50
	≥ 50	≥ 50	N=C(N)NC(=O)OCc1cccc(-c2cnc(N3CC(=NOC4COC4)C3)nc2)c1F [Example 144, 2-Fluoro-3-(2-{3-[(oxetan-3-yloxy)imino]azetidin-1-yl}pyrimidin-5-yl)benzyl carbamimidoylcarbamate]	≥ 50	≥ 50
	≥ 50	≥ 50	N=C(N)NC(=O)OCc1cccc(-c2cnc(N3CCC(=NOCCN4CCCC4=O)CC3)nc2)c1F [Example 178, 2-Fluoro-3-[2-(4-{[2-(2-oxopyrrolidin-1-yl)ethoxy]imino}piperidin-1-yl)pyrimidin-5-yl]benzyl carbamimidoylcarbamate]		
	≥ 50	≥ 50	N=C(N)NC(=O)OCc1cccc(-c2cnc(N3CCC(=NOc4cncnc4)CC3)nc2)c1F [Example 182, 2-Fluoro-3-(2-{4-[(pyrimidin-5-yloxy)imino]piperidin-1-yl}pyrimidin-5-yl)benzyl carbamimidoylcarbamate]		
	≥ 50	≥ 50	N=C(N)NC(=O)OCc1cccc(-c2cnc(N3CCC(=NOc4ncccn4)CC3)nc2)c1F [Example 183, 2-Fluoro-3-(2-{4-[(pyrimidin-2-yloxy)imino]piperidin-1-yl}pyrimidin-5-yl)benzyl carbamimidoylcarbamate]		

Compound	AUC (in vivo) [ng·h/mL]	inhibition in vivo at 0.3 mg/kg (Rat Plasma VAP-1) [%]	inhibition at 0.03 µM (Human VAP-1 enzyme) [%]	cytotoxicity inhibition ratio [1] [%]	cytotoxicity inhibition ratio [2] [%]
N=C(N)NC(=O)OCc1cccc(-c2cnc(N3CC(=NOC4CC(O)C4)C3)nc2)c1F (stereo not drawn) [Example 134, 2-Fluoro-3-(2-{3-[(3-hydroxycyclobutoxy)imino]azetidin-1-yl}pyrimidin-5-yl)benzyl carbamimidoylcarbamate]		≥ 50	≥ 50	≥ 50	≥ 50
